Patent US8771714B2, “Systems and methods for in vivo measurement of interstitial biological activity, processes and/or compositions” (MUSC Foundation for Research Development, priority 2006, dated 2014)
Read-outs that look alike come from different tables or passages of the source. Square brackets hold non-standard residues; d marks the D form. * marks the point of attachment. Dpa = 3-(2,4-dinitrophenyl)-L-2,3-diaminopropionyl; Dnp = O=[N+]([O-])c1ccc(*)c([N+](=O)[O-])c1; Mca = COc1ccc2c(CC(=O)*)cc(=O)oc2c1; Cha = N[C@@H](CC1CCCCC1)C(=O)O; Nva = CCC[C@H](N)C(=O)O; Mob = COc1ccc(C*)cc1

Columns and labels:
[1] = target: T1, MT1-MMP (MMP-14) recombinant catalytic domain (Homo sapiens, UniProt P50281); assay: In vitro validation of MT1-MMP fluorogenic substrate with recombinant MT1-MMP catalytic domain; format: biochemical
T1 construct: recombinant MT1-MMP catalytic domain (BIOMOL, Plymouth Meeting, Pa.); purchased BIOMOL, Plymouth Meeting, Pa
Experimental: Examples of fluorogenic substrate specificity for MMPs are shown below.
Specifically, MT1-MMP substrate (7.5 mM) was injected into a 96-well polystyrene plate (Nalge Nunc International, Rochester, N.Y.) with a 1.0 ng/mL concentration of recombinant MT1-MMP catalytic domain (BIOMOL, Plymouth Meeting, Pa.) and fluorescence emission was recorded. A rapid rise in activity, as measured by fluorescence emission, plateaued around 90 minutes. […] (FIG. 15, top). In addition, full length MT1-MMP (pretreated with 10 mM p-aminophenylmercuric acetate) was incubated for 1 hour at 37° C. with or without an antibody specific for the catalytic domain of MT1-MMP (1000 ng/mL, Chemicon AB8102). After the incubation period, the MT1-MMP substrate was injected and fluorescence emission recorded.
(§1) In an additional set of experiments (FIG. 16), MT1-MMP catalytic domain (1000 ng/mL, BIOMOL, Plymouth Meeting, Pa.) was injected into a 96-well polystyrene plate (Nalge Nunc International, Rochester, N.Y.) with a 30 mM mixture of MT1-MMP substrate only or MT1-MMP substrate with MMP-2/9 (500 ng/mL, Chemicon; FIG. 16, top), MMP-8 (10 ng/mL, Calbiochem; FIG. 16, middle), or a disintegrin and metalloproteinase (ADAM)-10 and -17 cocktail (200 ng/mL, R&D Systems; FIG. 16, bottom).

MMP-1, 2, 3, 7, 9 = assay: Ex-vivo MMP-1, 2, 3, 7, 9 activity in myocardial extracts; format: biochemical, human; design: dose or concentration left out as unconfirmed; conditions: BB94; FIG. 18
Experimental: In addition, these substrates were used to examine MMP activity ex-vivo using myocardial samples from both human and animal specimens. The frozen myocardial tissue was submerged in 2 mL of ice-cold buffer (Cacodylic Acid, NaCl, ZnCl2, CaCl2, NaN3, 0.08% Triton X), homogenized, and spun at 8,000 G for 10 minutes at 4C. The supernatant was then measured, tested for protein concentration, aliquoted, and stored at −70° C. Final protein concentrations were diluted in a reaction buffer containing (0.05% Brij, 50 mM Tris-HCl, 0.2 M NaCl, 10 mM CaCl2, […]) and the samples were loaded onto a 96-well microplate (FluoroNunc® 96-Well Polystyrene Plates) and placed in a 37° C. temperature controlled unit allowing for continuous fluorescence measurements (FLUOstar® Galaxy, BMG Labtechnologies). Substrate (MMP Substrate, Fluorogenic, Calbiochem) was diluted in the same reaction buffer and loaded into the FLUOstar® for automatic injection (12 mM). […] Excitation was set to (280 nm) and emission was set to (360 nm) and readings were taken every 2 minutes following the addition of the substrate. The reaction was allowed to proceed to 200 recordings (398 minutes). This reaction using the MMP-1, 2, 3, 7, 9 specific substrate was linear with increasing concentrations.

MMP-14 = target: T2, MMP-14 (Homo sapiens, UniProt P50281); assay: Ex-vivo MMP-14 activity in myocardial extracts; format: biochemical; design: dose or concentration left out as unconfirmed; conditions: BB94; FIG. 22
T2 construct: from tissue; host or cells: human myocardium, crude homogenate
Experimental: A similar experiment was done utilizing the fluorogenic substrate specific for MT1-MMP (MMP-14). Substrate (MMP-14 Substrate I, Fluorogenic, Calbiochem) was diluted in the same reaction buffer and loaded into the FLUOstar® for automatic injection (10 μM). […] The reaction was allowed to proceed in which 200 recordings (398 minutes) were collected. This reaction using the MMP-14 specific substrate was linear with increasing concentrations of a recombinant MMP-14 catalytic domain ([…], Chemicon) (FIG. 20).

[2] = tested on: MMP-2/9 recombinant protein; assay: MMP-1, 2, 3, 7, 9 substrate incubated with MMP-2/9 recombinant protein; format: biochemical
Experimental: Microdialysis: Microdialysis probes with a molecular weight cutoff of 20 kDa and an outer diameter of 0.5 mm were placed in the LV. The molecular weight cutoff of the microdialysis probe prevented any MMP species from traversing the membrane. A fluorogenic substrate specific for MMP-1, 2, 3, 7, and 9 (Calbiochem, La Jolla, Calif.) at a concentration of 60 ˜mol/L was stored in a 2.5 mL Bee Stinger® Gastight Syringe (Bioanalytical Systems, Inc) and infused at a rate of 5 ˜L/min through the 2 probes by the Baby Bee® Syringe Drive controlled by the MD-1020 Bee Hive Controller (Bioanalytical Systems, Inc). Fluorescence emitted via substrate cleavage deter-mined MMP activity. Substrate was allowed to equilibrate for 20 minutes before the beginning of the protocol. All tubing and syringes were protected from light. The specificity of this substrate was determined and performed as described for these fluorogenic substrates previously. […] With the addition of a broad spectrum MMP inhibitor (BB-94, 10 mmol/L, British Biotech), fluorescence emission was abolished.

MT1-MMP catalytic domain = assay: Validation of LTBP-1 fluorogenic substrate with MT1-MMP catalytic domain; format: biochemical; conditions: 15 uM LTBP-1 substrate; 0007258 5 pM; BB94 1 uM; AB8102 1 mg/mL
Text: Previous studies have identified mutations within a similar type of domain in fibrillin-1, an LTBP-1 homologue, implicated in Marfan Syndrome (MFS). Furthermore, MFS has been associated with the over-stimulation of TGF-Beta signaling as a result of fibrillin-1 mutation. Using this unique sequence, a fluorogenic peptide was constructed and validated. This peptide sequence was synthesized in a caged fluorogenic construct (AnaSpec Inc, CA; newly assigned peptide name:SCJJ-1) with a certified HPLC purity of >98% FIG. 28. Using the incubation conditions and fluorescent equipment described in the previous section, and a specific excitation/emission wavelength (340/483 nm), 15 uM of LTBP-1 was exposed to increasing concentrations of the MT1-MMP catalytic domain FIG. 28.
Thus, an LTBP-1 peptide sequence constructed and validated that is specifically cleaved by MT1-MMP.

angiotensin receptor = angiotensin receptor (Sus scrofa, UniProt P30555); conditions: bolus of 1 mg/kg, infusion of 3 ng/kg/h; previously found; cited from earlier work
MMP-2 and MMP-9 = tested on: MMP-2 and MMP-9; design: species or system pigs; conditions: pig, in vivo
Experimental: Myocardial Infarction: Mature pigs (n 5 20, Yorkshire, 35-40 kg, Hambone Farms) were instrumented to obtain indexes of LV global and regional function as well as for the measurement of myocardial interstitial MMPs. […] A loading dose of 50 mg sufentanil (Elkins-Sinn) was then administered, and a maintenance infusion of lactated Ringer solution (400 ml/h) and morphine 60 mg/h, Elkins-Sinn) was initiated. A continuous infusion of tubocurarine (3 mg/h, Bristol-Myers-Squibb) and lidocaine (120 mg/h, Elkins-Sinn) was established. In preliminary studies, this anesthetic protocol provided a deep anesthetic plane and stable hemodynamic profiles for at least 8 hours.
In a second set of studies, interstitial myocardial MMP activity was directly quantified using a MMP fluorogenic substrate. For these studies, microdialysis probes containing a 20-kDa molecular mass cutoff (CMA/20, CMA/Microdialysis) membrane were placed within the mid-myocardium. This molecular mass cutoff effectively excluded MMP species from directly traversing from the interstitial space into the microdialysis membrane. […] The samples were read using excitation and emission wavelengths of 280 and 360 nm, respectively (Gilford Fluoro IV; Oberlin, Ohio). […]

MMPs = MMPs that cleave the substrate, commercially available substrates, cited from earlier work
purified MMP-2/9 = assay: In vitro microdialysis of MMP substrate in immersion solution with purified MMP-2/9; format: biochemical; conditions: infused at 2.5 ml/min, purified MMP-2/9, 37° C.
MMP-2/9 = assay: Specificity of MT1-MMP substrate: incubation with MMP-2/9; format: biochemical; conditions: MMP-2/9 500 ng/mL alone, 30 mM substrate
Experimental: as §1

MMP-8 = target: T3, MMP-8 (Homo sapiens, UniProt P22894); assay: Specificity of MT1-MMP substrate: incubation with MMP-8; format: biochemical; conditions: MMP-8 10 ng/mL alone, 30 mM substrate
T3 construct: purchased Calbiochem
Experimental: as §1

[3] = tested on: a disintegrin and metalloproteinase (ADAM)-10 and -17; assay: Specificity of MT1-MMP substrate: incubation with ADAM-10 and -17 cocktail; format: biochemical; conditions: ADAM-10 and -17 cocktail 200 ng/mL alone, 30 mM substrate
Experimental: as §1

Chain of angiotensin receptor (P30555 whole entry, the tested form may be a part): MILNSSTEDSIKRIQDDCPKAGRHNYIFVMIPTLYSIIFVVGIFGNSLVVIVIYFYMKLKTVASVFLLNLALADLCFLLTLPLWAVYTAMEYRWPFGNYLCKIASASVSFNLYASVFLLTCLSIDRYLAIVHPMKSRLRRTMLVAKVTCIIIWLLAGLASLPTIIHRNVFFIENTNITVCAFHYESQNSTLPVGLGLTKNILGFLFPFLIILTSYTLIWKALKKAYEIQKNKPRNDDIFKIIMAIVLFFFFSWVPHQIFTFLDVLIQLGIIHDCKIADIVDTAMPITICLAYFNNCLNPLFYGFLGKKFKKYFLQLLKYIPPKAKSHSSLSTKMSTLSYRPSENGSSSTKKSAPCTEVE
T3 sequence (P22894 101-467, species assumed): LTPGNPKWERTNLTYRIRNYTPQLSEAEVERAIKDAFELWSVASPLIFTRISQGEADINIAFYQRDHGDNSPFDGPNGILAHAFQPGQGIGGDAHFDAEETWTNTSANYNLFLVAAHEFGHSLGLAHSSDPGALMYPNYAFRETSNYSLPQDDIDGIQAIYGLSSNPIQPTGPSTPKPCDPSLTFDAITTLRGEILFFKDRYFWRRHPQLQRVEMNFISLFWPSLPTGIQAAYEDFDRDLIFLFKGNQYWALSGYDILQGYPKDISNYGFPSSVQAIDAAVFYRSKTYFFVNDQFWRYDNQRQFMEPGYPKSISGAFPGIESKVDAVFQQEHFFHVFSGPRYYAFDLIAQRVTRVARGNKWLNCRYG

## CNC(=O)[C@H](Cc1ccccc1)NC(=O)[C@H](CC(C)C)[C@H](CSc1cccs1)C(=O)NO [BB94]
[1]; MT1-MMP recombinant catalytic domain, FIG. 13
  fluorescence emission with addition of BB94: abolishment of fluorescence emission
MMP-1, 2, 3, 7, 9
  inhibition of MMP-1, 2, 3, 7, 9 substrate reaction: significantly inhibited
MMP-14
  inhibition of MMP-14 substrate reaction: significantly inhibited
[2]; BB-94, MMP-2/9 500 ng/mL
  fluorescence emission with addition of inhibitor: abolished
MT1-MMP catalytic domain
  fluorescent activity on co-incubation: extinguished all fluorescent activity

## CCCCC(=O)N(Cc1ccc(-c2ccccc2-c2nnn[nH]2)cc1)[C@H](C(=O)O)C(C)C [Valsartan]
Angiotensin receptor
  effect on angiotensin pressor response: inhibited the angiotensin pressor response

## CNC(=O)[C@H](Cc1c[nH]c2ccccc12)NC(=O)[C@@H](CC(=O)NO)CC(C)C [galardin]
MMP-2 and MMP-9
  fluorescent activity in interstitial microdialysate samples on coinfusion with MMP substrate: abolished all fluorescent activity

## DABCYL-GABA-Arg-Pro-Lys-Pro-Val-Glu-Nva-Trp-Arg-Glu(EDANS)-Ala-Lys-NH2 [SEQ ID NO: 2]
MMPs
  Specificity: MMP-3,5,9,13

## DNP-Arg-Pro-Leu-Ala-Leu-Trp-Arg-Ser-OH (Dnp-RPLALWRS-OH; SMILES CC(C)C[C@H](NC(=O)[C@H](C)NC(=O)[C@H](CC(C)C)NC(=O)[C@@H]1CCCN1C(=O)[C@H](CCCNC(=N)N)Nc1ccc([N+](=O)[O-])cc1[N+](=O)[O-])C(=O)N[C@@H](Cc1c[nH]c2ccccc12)C(=O)N[C@@H](CCCNC(=N)N)C(=O)N[C@@H](CO)C(=O)O) [SEQ ID NO: 5]
MMPs
  Specificity: MMP-7

## DNP-Pro-Leu-Ala-Leu-Trp-Arg-OH (Dnp-PLALWR-OH; SMILES CC(C)C[C@H](NC(=O)[C@H](C)NC(=O)[C@H](CC(C)C)NC(=O)[C@@H]1CCCN1c1ccc([N+](=O)[O-])cc1[N+](=O)[O-])C(=O)N[C@@H](Cc1c[nH]c2ccccc12)C(=O)N[C@@H](CCCNC(=N)N)C(=O)O) [SEQ ID NO: 3]
MMPs
  Specificity: MMP-1

## DNP-Pro-Leu-Ala-Tyr-Trp-Ala-Arg-OH (Dnp-PLAYWAR-OH; SMILES CC(C)C[C@H](NC(=O)[C@@H]1CCCN1c1ccc([N+](=O)[O-])cc1[N+](=O)[O-])C(=O)N[C@@H](C)C(=O)N[C@@H](Cc1ccc(O)cc1)C(=O)N[C@@H](Cc1c[nH]c2ccccc12)C(=O)N[C@@H](C)C(=O)N[C@@H](CCCNC(=N)N)C(=O)O) [SEQ ID NO: 6]
MMPs
  Specificity: MMP-8

## DNP-Pro-Leu-Gly-Leu-Trp-Ala-D-Arg-NH2 (Dnp-PLGLWA[dR]-NH2; SMILES CC(C)C[C@H](NC(=O)CNC(=O)[C@H](CC(C)C)NC(=O)[C@@H]1CCCN1c1ccc([N+](=O)[O-])cc1[N+](=O)[O-])C(=O)N[C@@H](Cc1c[nH]c2ccccc12)C(=O)N[C@@H](C)C(=O)N[C@H](CCCNC(=N)N)C(N)=O) [SEQ ID NO: 1]
[2]; MMP-2/9 recombinant protein 500 ng/mL
  time to steady-state fluorescence emission: ≤ 60 min
MMPs
  Specificity: MMP-1,2,3,7,9
MMPs; listed as SEQ ID NO:1
  Specificity: cleaved selectively by MMPs 1, 2, 3, 7, 9

## DNP-Pro-Leu-Gly-Met-Trp-Ser-Arg-OH (Dnp-PLGMWSR-OH; SMILES CSCC[C@H](NC(=O)CNC(=O)[C@H](CC(C)C)NC(=O)[C@@H]1CCCN1c1ccc([N+](=O)[O-])cc1[N+](=O)[O-])C(=O)N[C@@H](Cc1c[nH]c2ccccc12)C(=O)N[C@@H](CO)C(=O)N[C@@H](CCCNC(=N)N)C(=O)O) [SEQ ID NO: 9]
MMPs
  Specificity: MMP-2,9

## DNP-Pro-Tyr-Ala-Tyr-Trp-Met-Arg-OH (Dnp-PYAYWMR-OH; SMILES CSCC[C@H](NC(=O)[C@H](Cc1c[nH]c2ccccc12)NC(=O)[C@H](Cc1ccc(O)cc1)NC(=O)[C@H](C)NC(=O)[C@H](Cc1ccc(O)cc1)NC(=O)[C@@H]1CCCN1c1ccc([N+](=O)[O-])cc1[N+](=O)[O-])C(=O)N[C@@H](CCCNC(=N)N)C(=O)O) [SEQ ID NO: 4]
MMPs
  Specificity: MMP-3

## Dnp-PLGLGMWSR-OH
Purified MMP-2/9
  time at which relative fluorescence plateaued: ≤ 60 min

## MCA-Pro-Cha-Gly-Nva-His-Ala-Dpa-NH2 (Mca-P[Cha]G[Nva]HA-{Dpa-NH2}) [SEQ ID NO: 7]
MMPs
  Specificity: MMP-13

## MCA-Pro-Leu-Ala-Cys(p-OMeBz)-Trp-Ala-Arg(Dpa)-NH2 (Mca-PLAC(Mob)WAR(Dpa)-NH2) [SEQ ID NO: 8]
[1]; injection of MT1-MMP catalytic domain 1000 ng/mL, in all protease cocktails
  fluorescence emission from the substrate: rapid rise in fluorescence emission
[1]; substrate 7.5 mM, 1.0 ng/mL recombinant MT1-MMP catalytic domain
  time at which fluorescence emission plateaued: around 90 minutes
MMP-2/9
  fluorescence emission from the substrate: failed to cause fluorescence emission
MMP-8
  fluorescence emission from the substrate: failed to cause fluorescence emission
[3]
  fluorescence emission from the substrate: failed to cause fluorescence emission
MMPs
  Specificity: MMP-14
MMPs; listed as SEQ ID NO:8
  Specificity: cleaved selectively by MMP-14
